{
  "source": "patent US20020103105A1",
  "about": "“Use of selective dopamine D4 receptor agonists for treating sexual dysfunction” (priority 2000, published 2002)",
  "key": {"[1]": {"tested_on": "emesis in male Fitch ferrets", "assay": "Emesis model in ferrets", "format": "in vivo", "details": "ferret, subcutaneous; for Incidence (%) of emesis: 90 minutes observation; for induction of emesis (in words): all doses tested", "method": "Male Fitch ferrets (body weights 1.0-1.5 kg) were fasted overnight before experimentation. Animals were placed individually in observation cages following subcutaneous administration of drug and observed for drug-induced nausea and emesis for a period of 90 minutes following drug injection. Nausea was characterized by behaviors such as licking, gagging, backing, head burying, and intense abdominal grooming. Emesis was usually preceded by these behaviors and was characterized by rhythmic abdominal contractions which were associated with vomiting or retching movement. The number of ferrets induced to emesis was recorded and expressed as incidence (%) in Tables 5-7."}, "dopamine D2 receptor": {"target": "T1, dopamine D2 receptor (Homo sapiens, UniProt P14416)", "T1 construct": "host or cells: A9L cells (membranes)", "T1 sequence (P14416 whole entry)": "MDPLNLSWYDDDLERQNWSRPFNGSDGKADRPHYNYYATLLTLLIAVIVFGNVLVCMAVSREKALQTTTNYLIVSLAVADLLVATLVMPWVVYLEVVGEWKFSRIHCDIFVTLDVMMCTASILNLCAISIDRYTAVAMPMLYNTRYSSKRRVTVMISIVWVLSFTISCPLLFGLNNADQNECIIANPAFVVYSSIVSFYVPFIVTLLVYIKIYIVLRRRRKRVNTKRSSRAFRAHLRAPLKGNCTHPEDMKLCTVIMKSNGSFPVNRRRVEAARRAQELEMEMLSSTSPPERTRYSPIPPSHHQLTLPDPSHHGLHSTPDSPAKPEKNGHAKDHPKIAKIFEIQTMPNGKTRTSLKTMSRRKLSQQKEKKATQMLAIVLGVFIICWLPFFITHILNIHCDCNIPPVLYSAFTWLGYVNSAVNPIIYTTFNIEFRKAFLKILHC", "assay": "Dopamine D2 binding assay ([3H]-spiperone, membranes of transfected A9L cells, run by Cerep)", "details": "recombinant human D2, [3H]-spiperone 0.3 nM", "method": "(§1) The dopamine D2 and D4 binding assays, used to determine binding affinities (Ki) illustrated in Table 1, were conducted according to standard procedures known to those in the art and are summarized herein.\n(§2) Briefly, receptor binding assays at the dopamine D2 and D4 receptors were carried out in membranes from cell lines expressing the recombinant human subtypes. […] Specific binding was defined as the difference between total binding and nonspecific binding. Ki values were determined using the Cheng-Prusoff equation and are illustrated in Table 1."}, "[2]": {"tested_on": "penile erection in Wistar rats", "assay": "Rat penile erection model", "format": "in vivo", "details": "subcutaneous; for Incidence (%) of penile erections: 60 minutes observation; for facilitation of penile erections in rats (in words, with effective dose range): versus vehicle", "method": "Wistar rats were used as a primary animal model to study penile erection in vivo. All experiments were carried out between 9:00 AM and 3:00 PM in a diffusely illuminated testing room with a red light. The rats were weighed and allowed to adapt to the testing room for 60 minutes before the beginning of experiments. Rats were placed in individual transparent cages (20×30×30 cm) after subcutaneous drug injection. The number of penile erections was recorded by direct observation for a period of 60 minutes after drug dosing."}, "dopamine D4 receptor [3]": {"target": "T2, dopamine D4 receptor (Homo sapiens, UniProt P21917)", "T2 sequence (P21917 1-419)": "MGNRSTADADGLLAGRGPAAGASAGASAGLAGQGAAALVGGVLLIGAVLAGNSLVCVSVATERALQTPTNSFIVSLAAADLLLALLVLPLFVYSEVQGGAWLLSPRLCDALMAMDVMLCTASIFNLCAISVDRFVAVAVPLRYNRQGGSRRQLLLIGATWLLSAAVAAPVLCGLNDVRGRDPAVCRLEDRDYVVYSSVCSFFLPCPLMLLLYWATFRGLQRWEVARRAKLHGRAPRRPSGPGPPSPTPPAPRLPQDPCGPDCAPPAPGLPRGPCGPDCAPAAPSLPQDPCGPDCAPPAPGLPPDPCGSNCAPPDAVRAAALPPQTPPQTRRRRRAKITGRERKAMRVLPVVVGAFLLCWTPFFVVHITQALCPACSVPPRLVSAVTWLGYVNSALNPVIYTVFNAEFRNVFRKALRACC", "details": "cited literature; cited from earlier work"}, "dopamine D4 receptor [4]": {"target": "T2, dopamine D4 receptor", "assay": "Dopamine D4 binding assay ([3H]-spiperone, membranes of transfected CHO cells, run by Cerep)", "set-up": "host or cells: CHO cells (membranes)", "details": "recombinant human D4, [3H]-spiperone 0.5 nM", "method": "as §1, §2"}, "human D4 receptor [5]": {"target": "T3, human D4 receptor (Homo sapiens, UniProt P21917)", "T3 sequence (P21917 1-419)": "T2 sequence (P21917 1-419)", "set-up": "expressed in transfected cells", "details": "CHO cells, read-out: EC50 inhibition of forskolin-stimulated cAMP accumulation; cited from earlier work"}, "human D4 receptor [6]": {"target": "T3, human D4 receptor", "assay": "FLIPR calcium assay in HEK293 cells expressing human D4 receptor co-transfected with Gqo5 chimera", "format": "cell-based", "set-up": "expressed in transfected cells; host or cells: HEK293 cells, stably transfected, with Gqo5 chimera", "method": "The FLIPR assay is a functional assay that can be conducted in HEK293 cells expressing the human D4 receptor, co-transfected with the Gqo5 protein chimera. Expression of the G-protein chimera allows for the mobilization of intracellular calcium after activation of the D4 receptor. Cells are prepared by plating the stably transfected D4-HEK293 cells into each well of 96 well plates. Cells are cultured until they reach confluence (approximately 48 hours). Media is removed from the plate and media containing the fluorescent calcium detecting dye Fluo-4 is added. Cells are incubated at room temperature for one hour. Cells are then washed three times with phosphate buffered saline and 150 μl PBS is added. Compounds to be tested are diluted in a second 96-well plate. The plate containing the cells is placed in fluorescent plate reader (FLIPR) and the reaction is begun by adding 50 μl of compound solution to all the wells simultaneously. Fluorescent signal is measured for 60 seconds sampling at 1 second intervals. The signal derived from 10 μM dopamine is used as 100% and a compound dose-response curve is normalized to determine the percent efficacy relative to dopamine. Dose response curves are analyzed to determine EC50 (nM)."}},
  "note": "Where “and” joins values, the source holds several entries; their conditions need not be identical. Equal entries are not always repeated. Where two headings read alike, the source gives them in different places.",
  "data": [
    {"smiles": "Cc1cccc(C(=O)NCN2CCN(c3ccccc3C#N)CC2)c1", "note": "[N-{[4-(2-cyanophenyl)-1-piperazinyl]methyl}-3-methylbenzamide]", "values": [
      {"measurement": "Incidence (%) of emesis", "setting": "[1]; 0.1 μmol/kg", "result": 0, "unit": "%"},
      {"measurement": "Incidence (%) of emesis", "setting": "[1]; 0.3 μmol/kg", "result": 0, "unit": "%"},
      {"measurement": "Incidence (%) of emesis", "setting": "[1]; 1.0 μmol/kg", "result": 0, "unit": "%"},
      {"measurement": "Incidence (%) of emesis", "setting": "[1]; 3.0 μmol/kg", "result": 0, "unit": "%"},
      {"measurement": "induction of emesis (in words)", "setting": "[1]", "result": "did not induce emesis at any dose"},
      {"measurement": "Ki", "setting": "dopamine D2 receptor", "result": "> 1000", "unit": "nM"},
      {"measurement": "Incidence (%) of penile erections", "setting": "[2]; 0.03 μmol/kg", "result": 42, "unit": "%"},
      {"measurement": "Incidence (%) of penile erections", "setting": "[2]; 0.1 μmol/kg", "result": 71, "unit": "%"},
      {"measurement": "Incidence (%) of penile erections", "setting": "[2]; 0.3 μmol/kg", "result": 79, "unit": "%"},
      {"measurement": "Incidence (%) of penile erections", "setting": "[2]; 1.0 μmol/kg", "result": 68, "unit": "%"},
      {"measurement": "facilitation of penile erections in rats (in words, with effective dose range)", "setting": "[2]", "result": "significant facilitation of penile erections in rats for doses 0.1 μmol/kg to 1.0 μmol/kg"}
    ]},
    {"smiles": "Fc1ccc2[nH]c(CN3CCN(c4ccccn4)CC3)cc2c1", "note": "[5-fluoro-2-{[4-(2-pyridinyl)-1-piperazinyl]methyl}-1H-indole]", "values": [
      {"measurement": "Ki", "setting": "dopamine D4 receptor [3]", "result": 6, "unit": "nM"},
      {"measurement": "selectivity for dopamine D4 receptor compared to D2 receptor (literature)", "setting": "dopamine D4 receptor [3]", "result": "> 100", "unit": "fold"},
      {"measurement": "Incidence (%) of emesis", "setting": "[1]; 0.1 μmol/kg", "result": 0, "unit": "%"},
      {"measurement": "Incidence (%) of emesis", "setting": "[1]; 0.3 μmol/kg", "result": 0, "unit": "%"},
      {"measurement": "Incidence (%) of emesis", "setting": "[1]; 1.0 μmol/kg", "result": 0, "unit": "%"},
      {"measurement": "Incidence (%) of emesis", "setting": "[1]; 3.0 μmol/kg", "result": 0, "unit": "%"},
      {"measurement": "induction of emesis (in words)", "setting": "[1]", "result": "did not induce emesis at any dose"},
      {"measurement": "Ki", "setting": "dopamine D4 receptor [4]", "result": 2.6, "unit": "nM"},
      {"measurement": "Ki", "setting": "dopamine D2 receptor", "result": "> 1000", "unit": "nM"},
      {"measurement": "EC50", "setting": "human D4 receptor [5]", "result": 5.8, "unit": "nM"},
      {"measurement": "Incidence (%) of penile erections", "setting": "[2]; 0.3 μmol/kg", "result": 60, "unit": "%"},
      {"measurement": "Incidence (%) of penile erections", "setting": "[2]; 1.0 μmol/kg", "result": 90, "unit": "%"},
      {"measurement": "Incidence (%) of penile erections", "setting": "[2]; 3.0 μmol/kg", "result": 90, "unit": "%"},
      {"measurement": "facilitation of penile erections in rats (in words, with effective dose range)", "setting": "[2]", "result": "significant facilitation of penile erections in rats for doses 1.0 μmol/kg and 3.0 μmol/kg"},
      {"measurement": "EC50", "setting": "human D4 receptor [6]; D4-HEK293 cells, Gqo5", "result": 32, "unit": "nM"},
      {"measurement": "Emax", "setting": "human D4 receptor [6]; HEK293, relative to 10 μM dopamine = 100%, read-out: Maximum Response FLIPR", "result": 46, "unit": "%"},
      {"measurement": "agonism at D4 receptor in FLIPR assay (in words)", "setting": "human D4 receptor [6]; Table A data", "result": "agonists"}
    ]},
    {"smiles": "CN1CCc2cccc3c2C1Cc1ccc(O)c(O)c1-3", "note": "(stereo not shown) [Apomorphine, 5,6,6a,7-tetrahydro-6-methyl-4H-dibenzo[de,g]quinoline-10,11-diol]", "values": [
      {"measurement": "Incidence (%) of emesis", "setting": "[1]; 0.1 μmol/kg", "result": 32, "unit": "%"},
      {"measurement": "Incidence (%) of emesis", "setting": "[1]; 0.3 μmol/kg", "result": "83% and 82%"},
      {"measurement": "Incidence (%) of emesis", "setting": "[1]; 0.3 μmol/kg, listed as apomorphine", "result": 83, "unit": "%"},
      {"measurement": "Incidence (%) of emesis", "setting": "[1]; 1.0 μmol/kg", "result": 48, "unit": "%"},
      {"measurement": "Incidence (%) of emesis", "setting": "[1]; 3.0 μmol/kg", "result": 32, "unit": "%"},
      {"measurement": "Incidence (%) of emesis", "setting": "[1]; 10.0 μmol/kg", "result": 32, "unit": "%"},
      {"measurement": "induction of emesis (in words)", "setting": "[1]", "result": "induced emesis at all doses"},
      {"measurement": "Incidence (%) of penile erections", "setting": "[2]; 0.003 μmol/kg", "result": 28, "unit": "%"},
      {"measurement": "Incidence (%) of penile erections", "setting": "[2]; 0.01 μmol/kg", "result": 56, "unit": "%"},
      {"measurement": "Incidence (%) of penile erections", "setting": "[2]; 0.03 μmol/kg", "result": 69, "unit": "%"},
      {"measurement": "Incidence (%) of penile erections", "setting": "[2]; 0.1 μmol/kg", "result": "86% and 90% and 92%"},
      {"measurement": "Incidence (%) of penile erections", "setting": "[2]; 0.1 μmol/kg, listed as apomorphine", "result": "86% and 90%"},
      {"measurement": "Incidence (%) of penile erections", "setting": "[2]; 0.3 μmol/kg", "result": 66, "unit": "%"},
      {"measurement": "Incidence (%) of penile erections", "setting": "[2]; 1.0 μmol/kg", "result": 25, "unit": "%"},
      {"measurement": "facilitation of penile erections in rats (in words, with effective dose range)", "setting": "[2]", "result": "significant facilitation of penile erections in rats for doses 0.01 μmol/kg to 0.3 μmol/kg"}
    ]}
  ]
}
